From EP0908457B1, “3-(1,2-benzisothiazol- and isoxazol-5-Y1)-2,4(1H,3H)-pyrimidinedione or thione and 3-(1,2-benzisothiazol- and isoxazol-5-y1)-4(3H)-pyrimidinone or thione herbicidal agents” (BASF AKTIENGESELLSCHAFT, priority 1997, dated 1999)

Tests used:
[1] = test system: Monochoria vaginalis, Presl.; test: Preemergence weed control under flooded paddy conditions, MOOVA (Monochoria); assay type: in vivo; details: preemergence, flooded paddy, rated three to four weeks after treatment
[2] = test system: Oryza sativa, (L.) Tebonnet; test: Rice tolerance to post-transplant applications under flooded paddy conditions (Example 187), ORYSAT (Rice, Tebonnet); details: rated three to four weeks after treatment
[3] = test system: Cyperus serotinus, Rottb.; test: Preemergence weed control under flooded paddy conditions, CYPSE (Flatsedge); assay type: in vivo; details: preemergence, rated three to four weeks after treatment
Sagittaria pygmaea, L. = test: Preemergence weed control under flooded paddy conditions, SAGPY (Arrowhead (Pygmaea)); assay type: in vivo; details: preemergence, flooded paddy, rated three to four weeks after treatment
Cyperus iria = test: Preemergence weed control under flooded paddy conditions, CYPIR (Rice Flatsedge); assay type: in vivo; details: preemergence, flooded paddy, rated three to four weeks after treatment
[4] = test system: Echinochloa oryzoides (Ard.) Fritsch.; test: Preemergence weed control under flooded paddy conditions, ECHORC (Watergrass (Calif.)); assay type: in vivo; details: preemergence, flooded paddy, rated three to four weeks after treatment

CC(C)NS(=O)(=O)NC(=O)c1nsc2ccc(-n3c(=O)cc(C(F)(F)F)n(C)c3=O)cc12 [Example 508, 1,2-Benzisothiazole-3-carboxamide, 5-[3,6-dihydro-3-methyl-2,6-dioxo-4-(trifluoromethyl)-1(2H)-pyrimidinyl]-N-(isopropylsulfamoyl)-]
MOOVA herbicidal rating ([1]; 0.0320 kg/ha): 9.0 | MOOVA herbicidal rating ([1]; 0.0620 kg/ha): 9.0 | MOOVA herbicidal rating ([1]; 0.1250 kg/ha): 9.0 | MOOVA herbicidal rating ([1]; 0.2500 kg/ha): 9.0 | ORYSAT herbicidal rating (rice tolerance) ([2]; 0.0320 kg/ha): 0.0 | ORYSAT herbicidal rating (rice tolerance) ([2]; 0.0620 kg/ha): 2.0 | ORYSAT herbicidal rating (rice tolerance) ([2]; 0.1250 kg/ha): 5.0 | ORYSAT herbicidal rating (rice tolerance) ([2]; 0.2500 kg/ha): 6.0 | CYPSE herbicidal rating ([3]; 0.0320 kg/ha): 0.0 | SAGPY herbicidal rating (Sagittaria pygmaea, L.; 0.0320 kg/ha): 5.0 | SAGPY herbicidal rating (Sagittaria pygmaea, L.; 0.0620 kg/ha): 6.0 | SAGPY herbicidal rating (Sagittaria pygmaea, L.; 0.1250 kg/ha): 9.0 | SAGPY herbicidal rating (Sagittaria pygmaea, L.; 0.2500 kg/ha): 9.0 | CYPIR herbicidal rating (Cyperus iria; 0.0320 kg/ha): 6.0 | CYPIR herbicidal rating (Cyperus iria; 0.0620 kg/ha): 7.0 | CYPIR herbicidal rating (Cyperus iria; 0.1250 kg/ha): 7.0 | CYPIR herbicidal rating (Cyperus iria; 0.2500 kg/ha): 9.0 | ECHORC herbicidal rating ([4]; 0.0320 kg/ha): 2.0 | ECHORC herbicidal rating ([4]; 0.0620 kg/ha): 5.0 | ECHORC herbicidal rating ([4]; 0.1250 kg/ha): 6.0 | ECHORC herbicidal rating ([4]; 0.2500 kg/ha): 9.0

Cn1c(C(F)(F)F)cc(=O)n(-c2ccc3snc(C(C)(C)C(N)=O)c3c2)c1=O [Example 509, 1,2-Benzisothiazole-3-acetamide, 5-[3,6-dihydro-3-methyl-2,6-dioxo-4-(trifluoromethyl)-1(2H)-pyrimidinyl]-alpha,alpha-dimethyl-]
MOOVA herbicidal rating ([1]; 0.0620 kg/ha): 0.0 | MOOVA herbicidal rating ([1]; 0.1250 kg/ha): 4.0 | MOOVA herbicidal rating ([1]; 0.2500 kg/ha): 9.0 | ORYSAT herbicidal rating (rice tolerance) ([2]; 0.0620 kg/ha): 0.0 | ORYSAT herbicidal rating (rice tolerance) ([2]; 0.1250 kg/ha): 3.0 | ORYSAT herbicidal rating (rice tolerance) ([2]; 0.2500 kg/ha): 7.0 | CYPSE herbicidal rating ([3]; 0.0620 kg/ha): 0.0 | CYPSE herbicidal rating ([3]; 0.1250 kg/ha): 0.0 | CYPSE herbicidal rating ([3]; 0.2500 kg/ha): 7.0 | SAGPY herbicidal rating (Sagittaria pygmaea, L.; 0.0620 kg/ha): 0.0 | SAGPY herbicidal rating (Sagittaria pygmaea, L.; 0.1250 kg/ha): 3.0 | SAGPY herbicidal rating (Sagittaria pygmaea, L.; 0.2500 kg/ha): 6.0 | CYPIR herbicidal rating (Cyperus iria; 0.0620 kg/ha): 0.0 | CYPIR herbicidal rating (Cyperus iria; 0.1250 kg/ha): 4.0 | CYPIR herbicidal rating (Cyperus iria; 0.2500 kg/ha): 7.0 | ECHORC herbicidal rating ([4]; 0.0620 kg/ha): 0.0 | ECHORC herbicidal rating ([4]; 0.1250 kg/ha): 2.0 | ECHORC herbicidal rating ([4]; 0.2500 kg/ha): 7.0

Cn1c(C(F)(F)F)cc(=O)n(-c2ccc3snc(C(C)(C)C(=O)OCc4ccccn4)c3c2)c1=O [Example 510, 1,2-Benzisothiazole-3-acetic acid, 5-[3,6-dihydro-3-methyl-2,6-dioxo-4-(trifluoromethyl)-1(2H)-pyrimidinyl]-alpha,alpha-dimethyl-, 2-pyridylmethyl ester]
MOOVA herbicidal rating ([1]; 0.0320 kg/ha): 6.0 | MOOVA herbicidal rating ([1]; 0.0620 kg/ha): 7.0 | MOOVA herbicidal rating ([1]; 0.1250 kg/ha): 9.0 | MOOVA herbicidal rating ([1]; 0.2500 kg/ha): 9.0 | ORYSAT herbicidal rating (rice tolerance) ([2]; 0.0320 kg/ha): 0.0 | ORYSAT herbicidal rating (rice tolerance) ([2]; 0.0620 kg/ha): 2.0 | ORYSAT herbicidal rating (rice tolerance) ([2]; 0.1250 kg/ha): 4.0 | ORYSAT herbicidal rating (rice tolerance) ([2]; 0.2500 kg/ha): 8.0 | CYPSE herbicidal rating ([3]; 0.0320 kg/ha): 0.0 | CYPSE herbicidal rating ([3]; 0.0620 kg/ha): 0.0 | CYPSE herbicidal rating ([3]; 0.1250 kg/ha): 3.0 | CYPSE herbicidal rating ([3]; 0.2500 kg/ha): 5.0 | SAGPY herbicidal rating (Sagittaria pygmaea, L.; 0.0320 kg/ha): 3.0 | SAGPY herbicidal rating (Sagittaria pygmaea, L.; 0.0620 kg/ha): 4.0 | SAGPY herbicidal rating (Sagittaria pygmaea, L.; 0.1250 kg/ha): 5.0 | SAGPY herbicidal rating (Sagittaria pygmaea, L.; 0.2500 kg/ha): 6.0 | CYPIR herbicidal rating (Cyperus iria; 0.0320 kg/ha): 0.0 | CYPIR herbicidal rating (Cyperus iria; 0.0620 kg/ha): 3.0 | CYPIR herbicidal rating (Cyperus iria; 0.1250 kg/ha): 7.0 | CYPIR herbicidal rating (Cyperus iria; 0.2500 kg/ha): 8.0 | ECHORC herbicidal rating ([4]; 0.0320 kg/ha): 9.0 | ECHORC herbicidal rating ([4]; 0.0620 kg/ha): 9.0 | ECHORC herbicidal rating ([4]; 0.1250 kg/ha): 9.0 | ECHORC herbicidal rating ([4]; 0.2500 kg/ha): 9.0
